EP2405274A1, “Monitoring anticoagulant therapy and identifying reversible direct factor Xa inhibitors” (Good biomarker Sciences B.V., priority 2010, dated 2012)

Legend:
Format in all cases: biochemical
[1] = tested on: pooled human citrated plasma; assay: Prothrombin time (PT) clotting assay with Simplastin Excel
Experimental: (§1) The experiments here below were performed with pooled human citrated plasma which was made from a minimum of individual contributions of 6 apparently healthy volunteers. Blood was collected ( 9 vol blood/ 1 volume 0.11 M citrate) in tubes and mixed directly after withdrawal. The Blood was cooled by submersion in ice water and centrifuged in a cooled, swing-out centrifuge for at least 20 minutes at 2000 x g. Subsequently, plasma was carefully separated from the cells and collected in an intermediate , cooled plastic tube. The collected plasma was mixed and centrifuged similarly after which platelet-poor-plasma was collected, aliquoted and after snap-freezing stored at -60 °C or below.
(§2) Different PT assays were used using PT assays commercially available as Simplastin excel S (BioMerieux), Innovin (Dade Behring), Neoplastin CI plus (Stago), Recombiplastin (Instrumentation Laboratories) and Thromborel S (Dade Behring). In each case The reagent consisted of Tissue factor, lipid and CaCl2. Tests were performed in a clotting analyser (AMAX Destiny, Kordia Lifesciences, Leiden, NL). In each case a cuvette was filled with 100 µl plasma and incubated for 1 minute at 37 °C. Pre-warmed PT reagent was added (200 µl) and recording of clotting was started. The AMAX recorded blood clotting by reduction in speed of a turning rod (mechanical detection).
(§3) For spiking experiments with rivaroxaban (Xarelto, from Bayer), the plasma sample was spiked with rivaroxaban at different concentrations between […], and the clotting times were again recorded using the different PT reagents. The results are plotted in Figure 1.
(§4) Example 1a was repeated with PT clotting assays Thromboplastin S (Biopool, through Trinity),PT fibrinogen (Instrumentation Laboratories), PT fibrinogen recombinant (Instrumentation Laboratories), Thromboplastin C plus ( Siemens) and Simplastin Excel (Biomerieux).

[2] = tested on: pooled human citrated plasma; assay: Prothrombin time (PT) clotting assay with Thromboplastin C plus
Experimental: as §1, §2, §3, §4

[3] = tested on: pooled human citrated plasma; assay: Prothrombin time (PT) clotting assay with Thromborel S
Experimental: as §1, §2, §3

[4] = tested on: pooled human citrated plasma; assay: Prothrombin time (PT) clotting assay with Simplastin excel S; set-up: Rivaroxaban-prolonged PT / Ratio range: dose or concentration left out as unconfirmed
Experimental: as §1, §2, §3

[5] = tested on: pooled human citrated plasma; assay: PT clotting assay with Simplastin Excel S in presence of RVV-V; settings: RVV-V added prior to the clotting experiment, Figure 2
Experimental: as §1
(§5) Different PT assays were used using PT assays commercially available as Simplastin excel S (BioMerieux), Innovin (Dade Behring), Neoplastin CI plus (Stago), Recombiplastin (Instrumentation Laboratories) and Thromborel S (Dade Behring). In each case The reagent consisted of Tissue factor, lipid and CaCl2. […] The AMAX recorded blood clotting by reduction in speed of a turning rod (mechanical detection). […]
(§6) For spiking experiments with rivaroxaban (Xarelto, from Bayer), the plasma sample was spiked with rivaroxaban at different concentrations between […], and the clotting times were again recorded using the different PT reagents. […]

[6] = tested on: pooled human citrated plasma; assay: Prothrombin time (PT) clotting assay with PT fibrinogen recombinant
Experimental: as §1, §2, §3, §4

[7] = tested on: pooled human citrated plasma; assay: Prothrombin time (PT) clotting assay with Recombiplastin
Experimental: as §1, §2, §3

[8] = tested on: pooled human citrated plasma; assay: Prothrombin time (PT) clotting assay with PT fibrinogen
Experimental: as §1, §2, §3, §4

[9] = tested on: pooled human citrated plasma; assay: Prothrombin time (PT) clotting assay with Thromboplastin S
Experimental: as §1
Different PT assays were used using PT assays commercially available as Simplastin excel S (BioMerieux), Innovin (Dade Behring), Neoplastin CI plus (Stago), Recombiplastin (Instrumentation Laboratories) and Thromborel S (Dade Behring). In each case The reagent consisted of Tissue factor, lipid and CaCl2. […] The AMAX recorded blood clotting by reduction in speed of a turning rod (mechanical detection).
as §6

[10] = tested on: pooled human citrated plasma; assay: Prothrombin time (PT) clotting assay with Innovin
Experimental: as §1, §2, §3

[11] = tested on: pooled human citrated plasma; assay: Prothrombin time (PT) clotting assay with Neoplastin CI plus
Experimental: as §1, §2, §3

[12] = tested on: pooled human citrated plasma; assay: PT clotting assay with Innovin in presence of RVV-V; settings: Figure 2
Experimental: as §1, §5, §6

[13] = 200 ng/ml rivaroxaban spiked in plasma
[14] = 600 ng/ml rivaroxaban spiked in plasma
[15] = PT ratio compared to reference value ("0"), up to 600 ng/ml rivaroxaban

Compound: O=C(NC[C@H]1CN(c2ccc(N3CCOCC3=O)cc2)C(=O)O1)c1ccc(Cl)s1 [rivaroxaban, Rivaroxaban]
- Prothrombin time [1, 13]: 40.0 s
- Prothrombin time [1, 14]: 63.1 s
- Ratio range [1, 15]: 1.0-3.1
- Prothrombin time [2, 13]: 44.3 s
- Prothrombin time [2, 14]: 73.5 s
- Ratio range [2, 15]: 1.0-3.1
- Prothrombin time [3, 13]: 21.1 s
- Prothrombin time [3, 14]: 26.7 s
- Ratio range [3, 15]: 1.0-1.7
- Sensitivity of PT assay for rivaroxaban ([4]; Simplastin Excel S and/or Triniclot Excel S, within the therapeutic range (ratio window 2 - 5)): high sensitivity
- Rivaroxaban-prolonged PT ([4]; Simplastin Excel S, without RVV-V, 200 -): 80 s
- Prothrombin time ([4]; Simplastin excel S, 200 µg/ml rivaroxaban spiked in plasma): 41.0 s
- Ratio range ([4]; Simplastin excel S, PT ratio compared to reference value ("0"), up): 1.0-5.0
- Prothrombin time ([4]; Simplastin excel S, spiked in plasma): 80.8 s
- Effect of RVV-V on prolonged PT [5]: completely vanished
- Prothrombin time [6, 13]: 32.9 s
- Prothrombin time [6, 14]: 45.4 s
- Ratio range [6, 15]: 1.0-1.9
- Prothrombin time [7, 13]: 16.8 s
- Prothrombin time [7, 14]: 26.2 s
- Ratio range [7, 15]: 1.0-2.5
- Prothrombin time [8, 13]: 38.5 s
- Prothrombin time [8, 14]: 62.7 s
- Ratio range [8, 15]: 1.0-2.8
- Prothrombin time [9, 14]: 51.6 s
- Ratio range [9, 15]: 1.0-2.4
- Prothrombin time [10, 13]: 12.0 s
- Prothrombin time [10, 14]: 17.1 s
- Ratio range [10, 15]: 1.0- 1.8
- Change in PT for rivaroxaban ([10]; without RVV-V, Figure 2): no significant change in PT
- Prothrombin time [11, 13]: 20.0 s
- Prothrombin time [11, 14]: 35.0 s
- Ratio range [11, 15]: 1.0-2.6
- Change in PT for rivaroxaban [12]: no significant change in PT
